According to patent US20170165286A1, “COMPOSITIONS AND METHODS FOR TREATING DIABETES AND LIVER DISEASES” (Cempra Pharmaceuticals, Inc., priority 2014, published 2017):
Entries after “also recorded” stand apart in the source; their conditions may differ.

Experiments:
Type in all cases: in vivo
[1] = test system: STAM mice; experiment: STAM model: whole blood and plasma biochemistry; settings: for Whole Blood Glucose Levels: non-fasting, 5-9 wks
Experimental: (§1) NASH-HCC (STAM™) Model. C57BL/6 (15-day-pregnant female) mice are obtained from Charles River Laboratories Japan (Kanagawa, Japan). Male pups are selected for the study. NASH is induced in male mice by a single subcutaneous injection of 200 μg streptozotocin (STZ, Sigma-Aldrich, USA) solution 2 days after birth, followed by feeding a HFD (57 kcal % fat, cat#: HFD32, CLEA Japan, Japan) beginning at 4 weeks of age. At 5 weeks of age, mice are divided into a control group and one or more treated group (generally 8 mice per group). Animals are sacrificed at 9 weeks of age, and biochemical, histological, and gene expression analyses are performed.
(§2) During weeks 5-9 (starting at day 35±2), test compound is administered (generally orally) at various doses diluted to 10 mL/kg and according to various dosing protocols to treatment groups (8 mice each) while a second group (8 mice) is administered vehicle only. Animals are sacrificed at 9 weeks.
Measurement of whole blood and plasma biochemistry. Non-fasting blood glucose was measured in whole blood using LIFE CHECK (EIDIA, Japan). For plasma biochemistry, blood was collected in polypropylene tubes with anticoagulant (Novo-Heparin, Mochida Pharmaceutical, Japan) and centrifuged at 1,000×g for 15 minutes at 4° C. The supernatant was collected and stored at −80° C. until use. Plasma ALT levels were measured by FUJI DRI-CHEM 7000 (Fujifilm, Japan). Plasma insulin, MIF and IL-22 were quantified by Ultra Sensitive Mouse Insulin ELISA Kit (Morinaga Institute of Biological science, Japan), Mouse Macrophage Migration Inhibitory Factor (MIF) ELISA (Kamiya Biomedical, USA), Quantikine ELISA Mouse/Rat IL-22 Immunoassay kit (R&D Systems, USA), respectively.
(§3) Illustrative dose response test groups. Group 1-Normal. Eight normal mice are fed with a normal diet ad libitum without any treatment until 9 weeks of age. Group 2-Vehicle. Eight NASH mice are orally administered vehicle (0.5% w/v methylcellulose+0.2% Tween®80) in a volume of 10 mL/kg twice daily from 5 to 9 week of age. Group 3-solithromycin 5 mg/kg. Eight NASH mice are orally administered vehicle supplemented with solithromycin at a dose of 5 mg/kg in the morning and the vehicle in the evening (5 mg/kg/day) from 5 to 9 weeks of age. Group 4-solithromycin 10 mg/kg. Eight NASH mice are orally administered vehicle supplemented with solithromycin at a dose of 10 mg/kg twice daily (20 mg/kg/day) from 5 to 9 weeks of age. Group 5-solithromycin 25 mg/kg. Eight NASH mice are orally administered vehicle supplemented with solithromycin at a dose of 25 mg/kg twice daily (50 mg/kg/day) from 5 to 9 weeks of age. Group 6-solithromycin 50 mg/kg. Eight NASH mice are orally administered vehicle supplemented with solithromycin at a dose of 50 mg/kg once daily (50 mg/kg/day) from 5 to 9 weeks of age.

[2] = test system: STAM mice; experiment: NASH-HCC (STAM) model: body weight, liver weight, macroscopic liver appearance; settings: for Liver Weight / Liver-to-body Weight Ratio: 5-9 wks
Experimental: as §1
All animals used in the study are housed and cared for in accordance with local regulations. Test animals are maintained in an SPF facility under controlled conditions of temperature (23±2° C.), humidity (45±10%), lighting (12-hour artificial light and dark cycles; light from 8:00 to 20:00) and air exchange. A high pressure (20±4 Pa) is maintained in the experimental room. Test animals are housed in polycarbonate cages KN-600 (Natsume Seisakusho, Japan) with a maximum of 4 mice per cage. Sterilized PULMASμ (Material Research Center, Japan) are used for bedding and replaced once a week. Sterilized solid HFD is provided ad libitum, being placed in the metal lid on top of the cage. Pure water is provided ad libitum from a water bottle equipped with a rubber stopper and a sipper tube. Water bottles are replaced once a week, cleaned and sterilized in autoclave and reused.
Generally, elevated NAFLD activity score (NAS)≧5, steatosis, and elevated ALT is evident by week 6, NASH is evident by week 7, perisinusoidal fibrosis is evident by week 9, nodules are evident by week 12, and HCC is evident by week 16. It is to be understood herein that perisinusoidal fibrosis in mice is the model for NASH in humans (Fujii et al., Med Mol Morphol 46: 141-152 (2013)).
as §2, §3

[3] = Absorption, metabolism and excretion of orally administered solithromycin; settings: oral
Source text: Macrolide antibiotics, like solithromycin, are primarily metabolized and excreted through liver-dependent mechanisms; this study evaluated the safety and PK of solithromycin in patients with chronic liver disease. It has been observed that approximately 78% of orally administered solithromycin is absorbed. Less than 15% unchanged solithromycin is excreted in the feces. It has also been observed that ˜70% of orally administered solithromycin is metabolized and excreted by the liver. Accordingly, high liver concentrations are observed. No dosage adjustment is needed when administering solithromycin to patients with mild, moderate, or severe hepatic impairment.

[4] = 5 mg/kg q.d. oral, listed as Solithromycin, 5 mg/kg
[5] = 10 mg/kg b.i.d. oral, listed as Solithromycin, 10 mg/kg
[6] = 25 mg/kg b.i.d. oral, listed as Solithromycin, 25 mg/kg

Structure (SMILES): CC[C@H]1OC(=O)[C@@](C)(F)C(=O)[C@H](C)[C@@H](O[C@@H]2O[C@H](C)C[C@H](N(C)C)[C@H]2O)[C@](C)(OC)C[C@@H](C)C(=O)[C@H](C)[C@H]2N(CCCCn3cc(-c4cccc(N)c4)nn3)C(=O)O[C@]12C [solithromycin]
- Plasma ALT ([1]; 5 mg/kg q.d.): 52 ± 78 U/L
- Plasma IL-22 ([1]; 5 mg/kg q.d.): 31.8 ± 1.6 pg/mL
- Plasma insulin ([1]; 5 mg/kg q.d.): 0.25 ± 0.10 ng/mL
- Plasma MIF ([1]; 5 mg/kg q.d., 5 mg/kg): no statistically significant differences
- Plasma MIF ([1]; 5 mg/kg q.d., listed as SOLI, 5 mg/kg): 4665 ± 2131 pg/mL
- Plasma ALT ([1]; 10 mg/kg b.i.d.): 31 ± 19 U/L
- Plasma IL-22 ([1]; 10 mg/kg b.i.d.): 33.0 ± 5.0 pg/mL
- Plasma insulin ([1]; 10 mg/kg b.i.d.): 0.41 ± 0.35 ng/mL
- Plasma MIF ([1]; 10 mg/kg b.i.d., 10 mg/kg): no statistically significant differences
- Plasma MIF ([1]; 10 mg/kg b.i.d., listed as SOLI, 10 mg/kg): 4852 ± 1720 pg/mL
- Plasma ALT ([1]; 25 mg/kg b.i.d.): 34 ± 14 U/L
- Plasma IL-22 ([1]; 25 mg/kg b.i.d.): 33.8 ± 7.2 pg/mL
- Plasma insulin ([1]; 25 mg/kg b.i.d.): 0.41 ± 0.22 ng/mL
- Plasma MIF ([1]; 25 mg/kg b.i.d., 25 mg/kg): significantly increased
- Plasma MIF ([1]; 25 mg/kg b.i.d., listed as SOLI, 25 mg/kg): 11748 ± 7633 pg/mL
- Plasma IL-22 levels compared to vehicle group ([1]; any doses): no statistically significant differences
- Plasma insulin levels compared to vehicle group ([1]; any doses): no statistically significant differences; also recorded: not significantly affected
- Plasma ALT levels compared to vehicle group ([1]; any doses (Groups 3-6)): no significant differences
- Whole Blood Glucose Levels ([1]; 5 mg/kg q.d. oral, 5 mg/kg): no statistically significant differences
- Whole Blood Glucose Levels ([1]; 5 mg/kg q.d. oral, listed as SOLI, 5 mg/kg): 726 ± 101 mg/dL
- Whole Blood Glucose Levels [1, 4]: 726 ± 101 mg/dL
- Whole Blood Glucose Levels ([1]; 10 mg/kg b.i.d. oral, 10 mg/kg): no statistically significant differences
- Whole Blood Glucose Levels ([1]; 10 mg/kg b.i.d. oral, listed as SOLI, 10 mg/kg): 713 ± 172 mg/dL
- Whole Blood Glucose Levels [1, 5]: 713 ± 172 mg/dL
- Whole Blood Glucose Levels ([1]; 25 mg/kg b.i.d. oral, 25 mg/kg): Statistically significant blood glucose decrease
- Whole Blood Glucose Levels ([1]; 25 mg/kg b.i.d. oral, listed as SOLI, 25 mg/kg): 497 ± 259 mg/dL
- Whole Blood Glucose Levels [1, 6]: 497 ± 259 mg/dL
- Whole Blood Glucose Levels ([1]; 50 mg/kg q.d. oral, 50 mg/kg): Statistically significant blood glucose decrease
- Whole Blood Glucose Levels ([1]; 50 mg/kg q.d. oral, listed as Solithromycin, 50 mg/kg): 380 ± 170 mg/dL
- Liver Weight ([2]; 5 mg/kg q.d. oral, 5 mg/kg): no statistically significant difference
- Liver-to-body Weight Ratio ([2]; 5 mg/kg q.d. oral, 5 mg/kg): no statistically significant differences
- Liver Weight [2, 4]: 1335 ± 185 mg
- Liver-to-body Weight Ratio [2, 4]: 7.0 ± 0.8%
- Liver Weight ([2]; 10 mg/kg b.i.d. oral, 10 mg/kg): significant reductions
- Liver-to-body Weight Ratio ([2]; 10 mg/kg b.i.d. oral, 10 mg/kg): no statistically significant differences
- Liver Weight [2, 5]: 1187 ± 134 mg
- Liver-to-body Weight Ratio [2, 5]: 6.7 ± 0.8%
- Liver Weight ([2]; 25 mg/kg b.i.d. oral, 25 mg/kg): significant reductions
- Liver-to-body Weight Ratio ([2]; 25 mg/kg b.i.d. oral, 25 mg/kg): significant decrease
- Liver Weight [2, 6]: 1087 ± 97 mg
- Liver-to-body Weight Ratio [2, 6]: 5.9 ± 0.7 %
- Liver Weight ([2]; 50 mg/kg q.d. oral): 1242 ± 141 mg
- Liver-to-body Weight Ratio ([2]; 50 mg/kg q.d. oral): 6.0 ± 0.7 %
- Mean body weight on the day of sacrifice compared to vehicle group ([2]; Group 4 (10 mg/kg b.i.d.)): significant decrease
- Mean body weight on the day of sacrifice compared to vehicle group ([2]; Groups 3, 5, 6): no significant differences
- Macroscopic liver appearance (coloration) ([2]; as a function of increasing dose): substantially less yellow in color
- Fraction of orally administered dose absorbed [3]: approximately 78%
- Fraction of orally administered dose metabolized and excreted by the liver [3]: ~70%
- Unchanged drug excreted in the feces [3]: Less than 15%
